Measured values: US10398696B2, “Combinations for treatment of cancer” (Stichting Het Nederlands Kanker Instituut-Antoni van …, priority 2013, dated 2019)

Key:
SW837 colon cells = test: long-term proliferation assay, SW837; assay type: cell-based; details: MEK inhibitor selumetinib (FIG. 3)
H358 lung cells = test: long-term proliferation assay, H358; assay type: cell-based; details: MEK inhibitor selumetinib (FIG. 2)
Method: FIG. 1 Suppression of ERBB3 by shRNA enhances response to MEK inhibitor. H358 KRAS mutant (Non-Small Cell Lung Cancer (NSCLC) cells were infected with two independent shRNAs targeting ERBB3 as indicated. pLKO vector serves as a control vector. After puromycin selection, cells were cultured in the absence or presence of 1 μM selumetinib for 20 days.
FIG. 2 […] lung cancer cells were cultured in increasing concentration of MEK inhibitor selumetinib alone, EGFR inhibitor gefitinib alone, ERBB2 inhibitor CP724714 alone, EGFR/ERBB2 dual inhibitor afatinib, EGFR/ERBB2 dual inhibitor dacomitinib alone or their combinations as indicated. Cells were harvested, fixed and stained after 21 days.
Recently the use of a kinome-centered synthetic lethal screening approach, which enables the identification of kinases whose inhibition is strongly synergistic with a cancer drug of interest has been described (Prahallad et al., 2012). […] Each of these knockdown vectors has a unique DNA-based molecular bar code identifier, which allows quantification of the relative abundance of each of the shRNA vectors in the presence and absence of drug (Prahallad et al., 2012). […] After 21 days, genomic DNA was isolated from both cells of the treated and untreated populations and the bar codes contained in the shRNA cassettes were recovered by PCR and their abundance determined by deep sequencing. […]

SMILES: COc1cc2ncnc(Nc3ccc(F)c(Cl)c3)c2cc1NC(=O)/C=C/CN1CCCCC1 [dacometinib]
- synergy with MEK inhibition in long-term proliferation assays (SW837 colon cells): strong synergy
- synergy with MEK inhibition in long-term proliferation assays (H358 lung cells): strong synergy
